According to the supplement of paper PMC10627819:

Experiments:
B. subtilis 168 [1] = experiment: fitness (endpoint OD595 vs no drug) (fraction); higher = more growth
Method in brief: (§1)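 Bacterial growth was followed in 384-well plates seeded at OD595 0.01, with 30 µl per well, or 55 µl for S. pneumoniae, in TSB, LB Lennox or CY at 37 °C. OD595 was read every 30 min for 14 h, and each reading had the first reading subtracted as background. Fitness is the background-corrected optical density at entry into stationary phase divided by the robust mean of the no-drug control wells. This ratio is capped at 1.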

S. aureus DSM 20231 [2] = experiment: as above
Method in brief: as §1

S. pneumoniae D39V [3] = experiment: as above
Method in brief: as §1

S. aureus Newman [4] = experiment: as above
Method in brief: as §1

B. subtilis 168 [5] = experiment: Bliss interaction score (quartile over a dose matrix) (fitness difference); higher = more antagonism (negative = synergy)
Method in brief: (§2)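 The Bliss score takes observed fitness and subtracts the expected fitness, calculated as a product of single-drug fitness values. Those single-drug values were inferred from the combination data. Fitness is OD595 at entry into stationary phase divided by the plate's robust no-drug mean, capped at 1, and the score is summarised by quartiles across technical, biological and donor/recipient replicates.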

S. aureus DSM 20231 [6] = experiment: as above
Method in brief: as §2

S. pneumoniae D39V [7] = experiment: as above
Method in brief: as §2

S. aureus Newman [8] = experiment: as above
Method in brief: as §2
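Wherever Bliss interaction score (quartile over a dose matrix) is given: first quartile when negative (synergy) and third quartile when positive (antagonism).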

C[C@@H]1O[C@@H]1P(=O)(O)O [Fosfomycin] + CCN(CC)CCOC(=O)c1ccc(N)cc1 [Procaine]
fitness
Details | partner 85.5 µg/mL | partner 171 µg/mL | partner 342 µg/mL
B. subtilis 168 [1], first compound 1.562 µg/mL | 0.711 | 0.704 | 0.646
B. subtilis 168 [1], first compound 3.124 µg/mL | 0.592 | 0.554 | 0.576
B. subtilis 168 [1], first compound 6.248 µg/mL | 0.377 | 0.372 | 0.322
S. aureus DSM 20231 [2], first compound 0.781 µg/mL | 0.736 | 0.812 | 0.833
S. aureus DSM 20231 [2], first compound 1.562 µg/mL | 0.603 | 0.64 | 0.634
S. aureus DSM 20231 [2], first compound 3.124 µg/mL | 0.427 | 0.513 | 0.489
S. aureus Newman [4], first compound 0.781 µg/mL | 0.576 | 0.54 | 0.562
S. aureus Newman [4], first compound 1.562 µg/mL | 0.535 | 0.553 | 0.516
S. aureus Newman [4], first compound 3.124 µg/mL | 0.198 | 0.197 | 0.162
S. pneumoniae D39V [3], first compound 1.25 µg/mL | 0.979 | 0.97 | 0.924
S. pneumoniae D39V [3], first compound 2.5 µg/mL | 0.951 | 0.921 | 0.905
S. pneumoniae D39V [3], first compound 5 µg/mL | 0.81 | 0.827 | 0.813

Details | Bliss interaction score
B. subtilis 168 [5] | -0.0557
S. aureus DSM 20231 [6] | -0.0626
S. aureus Newman [8] | 0.0813
S. pneumoniae D39V [7] | -0.029

Cc1ncc([N+](=O)[O-])n1CCO [Metronidazole] + CCN(CC)CCOC(=O)c1ccc(N)cc1 [Procaine]
fitness
Details | partner 85.5 µg/mL | partner 171 µg/mL | partner 342 µg/mL
B. subtilis 168 [1], first compound 0.625 µg/mL | 0.94 | 0.944 | 0.876
B. subtilis 168 [1], first compound 1.25 µg/mL | 0.935 | 0.956 | 0.937
B. subtilis 168 [1], first compound 2.5 µg/mL | 0.896 | 0.868 | 0.958
S. aureus DSM 20231 [2], first compound 0.625 µg/mL | 0.996 | ≥ 1 | ≥ 1
S. aureus DSM 20231 [2], first compound 1.25 µg/mL | 0.977 | ≥ 1 | ≥ 1
S. aureus DSM 20231 [2], first compound 2.5 µg/mL | 0.938 | ≥ 1 | ≥ 1
S. aureus Newman [4], first compound 0.625 µg/mL | 0.934 | 0.934 | 0.686
S. aureus Newman [4], first compound 1.25 µg/mL | 0.858 | 0.988 | –
S. aureus Newman [4], first compound 2.5 µg/mL | 0.814 | 0.876 | –
S. pneumoniae D39V [3], first compound 1.073 µg/mL | 0.979 | 0.969 | 0.939
S. pneumoniae D39V [3], first compound 2.145 µg/mL | 0.911 | 0.948 | 0.89
S. pneumoniae D39V [3], first compound 4.29 µg/mL | 0.914 | 0.894 | 0.927

fitness, one replicate
Details | first compound 0.781 µg/mL | first compound 1.25 µg/mL | first compound 1.562 µg/mL | first compound 2.5 µg/mL | first compound 3.124 µg/mL | first compound 5 µg/mL
S. aureus Newman [4], partner 85.5 µg/mL | ≥ 1 | – | ≥ 1 | – | ≥ 1 | –
S. aureus Newman [4], partner 171 µg/mL | ≥ 1 | – | ≥ 1 | – | ≥ 1 | –
S. aureus Newman [4], partner 342 µg/mL | ≥ 1 | – | ≥ 1 | – | ≥ 1 | –
S. pneumoniae D39V [3], partner 85.5 µg/mL | – | ≥ 1 | – | ≥ 1 | – | 0.979
S. pneumoniae D39V [3], partner 171 µg/mL | – | ≥ 1 | – | ≥ 1 | – | ≥ 1
S. pneumoniae D39V [3], partner 342 µg/mL | – | 0.952 | – | ≥ 1 | – | 0.95

Details | Bliss interaction score
B. subtilis 168 [5] | -0.0393
S. aureus DSM 20231 [6] | 0.0477
S. aureus Newman [8] | 0.0807
S. pneumoniae D39V [7] | -0.0526
